Paper PMC7217877, “N-AS-triggered SPMs are direct regulators of microglia in a model of Alzheimer’s disease” (Nature Communications, 2020)
Where “and” joins values, the source holds several entries; their conditions need not be identical. Equal values may be shown once.

Tests used:
COX2 = molecular target: T1, COX2 (Homo sapiens, UniProt P35354); assay: lipid mediator and SPM biosynthesis by recombinant COX2 with 5-LOX (LC-MS/MS); assay type: biochemical; design: purchased Cayman 60122; conditions: for 11-HETE, Product (%) / 15-HETE, Product (%) / 15R-LXA4, Product (%) / PGH2, Product (%): AA; for 11-HETE, Product (%) / 15-HETE, Product (%) / 15R-LXA4, Product (%) / PGH2, Product (%) / 13-HDHA, Product (%) / 17-HDHA, Product (%) / RvD1, Product (%) / 11-HEPE, Product (%) / 15-HEPE, Product (%) / 18-HEPE, Product (%) / RvE1, Product (%): acetylated huCOX2, mean±s.e.m., n=6; for 15R-LxA4 quantification (Fig 2c) / RvD1 quantification (Fig 2c) / RvE1 quantification (Fig 2c): Control COX2 + 5-LOX, replicates; for 13-HDHA, Product (%) / 17-HDHA, Product (%) / RvD1, Product (%): DHA; for 11-HEPE, Product (%) / 15-HEPE, Product (%) / 18-HEPE, Product (%) / RvE1, Product (%): EPA
T1 sequence (P35354 18-604): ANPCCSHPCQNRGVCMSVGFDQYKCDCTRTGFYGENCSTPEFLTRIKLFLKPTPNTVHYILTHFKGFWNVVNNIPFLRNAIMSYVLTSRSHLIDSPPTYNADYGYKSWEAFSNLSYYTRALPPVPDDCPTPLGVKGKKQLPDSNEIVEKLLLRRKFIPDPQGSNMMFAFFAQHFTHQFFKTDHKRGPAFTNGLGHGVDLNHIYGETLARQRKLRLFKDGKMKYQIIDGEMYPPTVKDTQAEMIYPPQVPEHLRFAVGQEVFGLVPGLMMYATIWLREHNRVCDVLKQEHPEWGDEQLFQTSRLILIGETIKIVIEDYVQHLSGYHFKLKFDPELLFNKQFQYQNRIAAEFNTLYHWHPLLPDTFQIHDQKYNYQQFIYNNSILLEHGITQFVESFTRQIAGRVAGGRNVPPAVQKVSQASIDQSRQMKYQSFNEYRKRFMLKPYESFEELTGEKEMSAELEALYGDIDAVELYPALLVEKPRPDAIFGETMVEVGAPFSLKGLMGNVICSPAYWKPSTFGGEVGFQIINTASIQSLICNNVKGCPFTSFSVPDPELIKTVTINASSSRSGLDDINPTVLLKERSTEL
Method: Lipid mediators metabololipidomics were performed according to previously described procedures with minor modifications[4],[30]. To confirm the biosynthesis of lipid mediators by recombinant COX2 treated with N-AS or aspirin, 10 U of human recombinant COX2 (Cayman, 60122) was incubated in the presence of 500 μM aspirin (Sigma-Aldrich, A5376) or N-AS (Sigma-Aldrich, 01912) at 37 °C for 30 min. The enzyme was filtered with a Microcon column (Millipore) to remove unreacted aspirin or N-AS and was then resuspended in 0.1 M Tris-HCl (pH 8.0). Next, 500 μM phenol (Sigma-Aldrich) and 1 μM hematin-porcine (Sigma-Aldrich) were added immediately before incubation with 100 μM AA, EPA or DHA (Cayman) at 37 °C for 2 h, respectively. The mixtures were incubated with 30 U of human 5-LOX (Cayman, 60402) containing 2 mM CaCl2 (Sigma-Aldrich), 1 mM ATP (Amresco) and 5 μM 13-HpODE (Cayman) as activators. Also, to validate the importance of residue S565 for N-AS-acetylation of COX2 and production of SPMs, 10 U of the COX2 S565A mutant was used in the above-described method. In addition, to confirm SPM generation in neurons and microglia, these cells were treated with Aβ and sonicated in neuronal and glial culture medium. […] To evaluate the relationship of N-AS and SPM production in microglia, microglia were isolated from WT, APP/PS1, and APP/PS1 treated with N-AS mice at 9 months of age. The microglia were sonicated and resuspended in microglial culture medium. The supernatants were incubated with 100 μM AA, EPA, and DHA (Cayman) at 37 °C for 2 h. A 50 μl aliquot of the mixture from each cell lysate was added to a 250 μl aliquot of 1 ng ml^−1 of 15S-LXA4-d5 (internal standard, Cayman) methanol solution. After vortexing for 10 min and centrifuging at 15,974×g for 5 min, the supernatant was subjected to the analysis of the lipid mediators using an Agilent 6470 Triple Quad LC-MS/MS system (Agilent) coupled to an Agilent 1290 HPLC system. Chromatographic separation was achieved using a Synergi Polar RP (4 μm, 2.0 mm i.d. × 150 mm, Phenomenex). Analytes were eluted with a mobile phase consisting of water: formic acid (100:0.1 v/v) (phase A) and methanol: formic acid (100:0.1 v/v) (phase B) in gradient elution mode for 23 min a flow rate of 0.2 ml min^−1. The elution gradient was as follows: from 0 to 0.1 min the content of phase A was 37% and the content of phase A was decreased to 10% and maintained for 5.5 min. The content of phase A was increased back to 37% at 6.0 min and maintained for 23 min. Quantification was carried out using MRM in negative ionization mode and collision energy of 10–15 eV. The mass transition from Q1 to Q3 is shown in Supplementary Table 2. In this study, the peak areas for all components were automatically integrated using MassHunter B 06.00.

APP/PS1 mice = assay: COX2 mRNA and protein in microglia of mice treated with N-AS or aspirin (Supplementary Fig 7p,q); assay type: in vivo, mouse; conditions: for COX2 mRNA in microglia: APP/PS1 mice treated, sFig 7p
Description: Adult neurons and microglia were isolated from the mice brain as previously described. In brief, the cortex of WT (1, 3, 5, or 9-months-old), APP/PS1 (1, 3, 5, or 9-months-old), APP/PS1 treated with N-AS (9-months-old) or APP/PS1 treated with aspirin (9-months-old) mice were minced in Hibernate A (Gibco)/B27 (Invitrogen) medium and dissociated using papain (Worthington) solution. After tissue trituration, cells were separated by Optiprep (Sigma-Aldrich) density gradient centrifugation.
Samples were lysed in RIPA buffer (Cell signaling Technologies), then subjected to SDS-PAGE and transferred to a nitrocellulose membrane. Membranes were blocked with 5% milk, incubated with primary antibody and then incubated with the appropriate horseradish peroxidase-conjugated secondary antibody. […] We performed densitometric quantification using the ImageJ software (National Institutes of Health). Images have been cropped for presentation.
Transgenic mouse lines over-expressing the hAPP695swe (APP) and presenilin-1M146V (PS1) mutations were originated from GlaxoSmithKline (Harlow, UK)[32] and maintained as described previously. […] Because APP/PS1 and 5xFAD mice show sex differences in disease progression, we used only male mice. […] Block randomization method was used to allocate the animals to experimental groups. To eliminate the bias, we were blinded in experimental progress such as data collection and data analysis. […] All protocols were approved by the Kyungpook National University Institutional Animal Care and Use Committee.
For total RNA extraction from the microglia derived from WT, APP/PS1, APP/PS1 mice treated with N-AS, and APP/PS1 mice treated with aspirin, the cells were isolated from the cortex of WT, APP/PS1, APP/PS1 mice treated with N-AS, or aspirin using the methods described above. […] Quantitative real-time PCR was performed using a Corbett research RG-6000 real-time PCR instrument. Primers are described in Supplementary Table 5.

| SMILES | 11-HETE, Product (%) (COX2) | 15-HETE, Product (%) (COX2) | 15R-LXA4, Product (%) (COX2) | PGH2, Product (%) (COX2) | 15R-LxA4 quantification (Fig 2c) (COX2) | RvD1 quantification (Fig 2c) (COX2) | RvE1 quantification (Fig 2c) (COX2) | 13-HDHA, Product (%) (COX2) | 17-HDHA, Product (%) (COX2) | RvD1, Product (%) (COX2) | 11-HEPE, Product (%) (COX2) | 15-HEPE, Product (%) (COX2) | 18-HEPE, Product (%) (COX2) | RvE1, Product (%) (COX2) | COX2 mRNA in microglia (APP/PS1 mice) | mRNA and protein levels of COX2 (APP/PS1 mice; N-AS-treated vs APP/PS1) |
| --- | --- | --- | --- | --- | --- | --- | --- | --- | --- | --- | --- | --- | --- | --- | --- | --- |
| CC(=O)Oc1ccccc1C(=O)O [Aspirin, acetylsalicylic acid, reference compound] | 13.8±0.41 | 9.5±0.22 | 4.2±0.18 | 72.3±0.68 | 8734.32 and 9047.96 and 8672.38 and 8679.89 and 12017 and 8786.05 and 9112.59 | 529.99 and 519.44 and 632.8 and 532.11 and 521.52 | 3237.03 and 3196.43 and 4589.07 and 4937.89 and 3246.64 and 3210.17 | 5.0±0.15 | 94.6±0.22 | 0.4±0.01 | 27.3±1.40 | 5.8±0.06 | 61.3±0.32 | 3.1±0.25 | 0.57 and 0.65 and 0.68 and 0.49 and 0.61 | – |
| CCCCCCCCCCCCC/C=C/[C@@H](O)[C@H](CO)NC(C)=O [N-AS, N-((2S,3R,E)-1,3-Dihydroxyoctadec-4-en-2-yl)acetamide] | 13.1±0.55 | 13.3±0.59 | 4.8±0.23 | 69.7±1.08 | 10460.6 and 9709.13 and 8768.93 and 9235.99 and 8577.96 and 10535.3 | 670.43 and 829.94 and 668.56 and 744.28 and 781.34 and 739.49 and 733.66 | 4023.99 and 3322.2 and 4006.77 and 4517.41 and 3768.91 and 4998.35 and 3336.48 | 3.6±0.09 | 95.8±0.19 | 0.53±0.09 | 26.8±0.41 | 5.8±0.09 | 64.0±0.25 | 3.3±0.09 | 0.91 and 0.92 and 1.07 and 1.22 and 1 | did not vary |
